Laboratory results taken from ChEMBL document CHEMBL6103646 (J Med Chem, 2025).
Active and inactive are the calls of the source. No cut-off for these calls is given here.

Tests used:
[1] = target: Histone deacetylase 1 (Homo sapiens) (UniProt Q13547); experiment: Inhibition of HDAC1 in human MM1.S cells assessed as increase in acetylated histone H3 level at 1 uM incubated for 6 hrs by Western blot analysis; type: cell-based
[2] = target: Histone deacetylase 2 (Homo sapiens) (UniProt Q92769); experiment: Inhibition of HDAC2 in human MM1.S cells assessed as increase in acetylated histone H3 level at 1 uM incubated for 6 hrs by Western blot analysis; type: cell-based
[3] = Stability of compound in human whole blood assessed as half-life at 1 uM measured upto 40 mins by LC-MS/MS analysis; type: ADME, tissue-based
[4] = target: Protein cereblon/Protein deacetylase HDAC6 (Homo sapiens) (UniProt Q9UBN7+Q96SW2); experiment: PROTAC activity at CRBN/HDAC6 in human MM1.S cells assessed as induction of HDAC6 degradation at 0.1 to 1 uM by Western blot analysis; type: cell-based; conditions: dose 0.1-1 µM
[5] = target: T1, Histone deacetylase 11 (Homo sapiens, UniProt Q96DB2); experiment: Inhibition of HDAC11 (unknown origin) using FAM-labeled peptide substrate by […] mobility shift assay
T1 sequence (Q96DB2 whole entry): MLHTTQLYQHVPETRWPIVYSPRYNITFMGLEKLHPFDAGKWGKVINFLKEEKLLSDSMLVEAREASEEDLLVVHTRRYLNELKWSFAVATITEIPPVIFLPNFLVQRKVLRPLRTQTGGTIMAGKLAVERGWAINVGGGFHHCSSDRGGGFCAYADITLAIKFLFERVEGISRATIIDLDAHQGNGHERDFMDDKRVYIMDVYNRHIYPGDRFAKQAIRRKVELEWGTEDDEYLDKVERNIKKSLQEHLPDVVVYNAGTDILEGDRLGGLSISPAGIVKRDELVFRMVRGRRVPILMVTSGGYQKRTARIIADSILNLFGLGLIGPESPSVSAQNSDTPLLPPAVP

[6] = target: T2, Histone deacetylase 8 (Homo sapiens, UniProt Q9BY41); experiment: Inhibition of HDAC8 (unknown origin) using FAM-labeled peptide substrate by […] mobility shift assay
T2 sequence (Q9BY41 whole entry): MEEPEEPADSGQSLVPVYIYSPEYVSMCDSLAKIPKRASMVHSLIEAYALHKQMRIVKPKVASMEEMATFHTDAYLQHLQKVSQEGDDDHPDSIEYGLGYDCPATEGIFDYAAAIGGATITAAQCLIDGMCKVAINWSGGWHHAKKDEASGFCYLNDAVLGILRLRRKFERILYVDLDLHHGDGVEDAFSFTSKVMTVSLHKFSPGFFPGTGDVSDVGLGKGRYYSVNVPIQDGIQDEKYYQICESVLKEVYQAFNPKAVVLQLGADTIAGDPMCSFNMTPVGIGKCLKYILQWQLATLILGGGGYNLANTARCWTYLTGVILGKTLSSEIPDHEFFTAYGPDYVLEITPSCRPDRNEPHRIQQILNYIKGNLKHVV

[7] = Selectivity index, ratio of IC50 for inhibition of HDAC8 (unknown origin) to IC50 for inhibition of HDAC6 (unknown origin)
[8] = target: Protein cereblon/Protein deacetylase HDAC6 (Mus musculus) (UniProt Q9Z2V5+Q8C7D2); experiment: In vivo PROTAC activity at CRBN/HDAC6 in female C57BL/6J mouse assessed as reduction in HDAC6 protein level in liver at 5 mg/kg, iv measured after 6 hrs by Western blot analysis relative to control; type: functional, organism-based; design: scale not given: the % may be the effect or the level left
[9] = tested on: N2a; experiment: Antiproliferative activity against mouse Neuro2a cells assessed as effect on cell viability by CellTiter-Glo assay; type: functional, cell-based
[10] = tested on: MM1.S; experiment: Antiproliferative activity against human MM1.S cells assessed as reduction in cell viability measured after 72 hrs by CellTiter-Glo assay; type: functional, cell-based

Sequence of Histone deacetylase 2 (Homo sapiens) (Q92769 whole entry): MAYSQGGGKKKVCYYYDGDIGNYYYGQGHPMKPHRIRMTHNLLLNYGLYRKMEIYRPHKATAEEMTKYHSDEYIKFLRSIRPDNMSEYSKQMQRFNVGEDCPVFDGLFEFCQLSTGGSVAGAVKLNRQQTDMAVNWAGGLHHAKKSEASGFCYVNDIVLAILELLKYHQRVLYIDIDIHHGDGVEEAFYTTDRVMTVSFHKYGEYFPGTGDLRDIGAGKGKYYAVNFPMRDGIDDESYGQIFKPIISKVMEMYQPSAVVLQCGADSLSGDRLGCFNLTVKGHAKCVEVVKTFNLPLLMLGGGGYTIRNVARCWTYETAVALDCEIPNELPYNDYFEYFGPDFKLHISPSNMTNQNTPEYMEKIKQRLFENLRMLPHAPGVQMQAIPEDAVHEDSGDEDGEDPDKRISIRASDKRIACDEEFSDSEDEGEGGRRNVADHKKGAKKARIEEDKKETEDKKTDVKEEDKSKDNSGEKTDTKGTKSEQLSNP
Sequence of Histone deacetylase 1 (Homo sapiens) (Q13547 whole entry): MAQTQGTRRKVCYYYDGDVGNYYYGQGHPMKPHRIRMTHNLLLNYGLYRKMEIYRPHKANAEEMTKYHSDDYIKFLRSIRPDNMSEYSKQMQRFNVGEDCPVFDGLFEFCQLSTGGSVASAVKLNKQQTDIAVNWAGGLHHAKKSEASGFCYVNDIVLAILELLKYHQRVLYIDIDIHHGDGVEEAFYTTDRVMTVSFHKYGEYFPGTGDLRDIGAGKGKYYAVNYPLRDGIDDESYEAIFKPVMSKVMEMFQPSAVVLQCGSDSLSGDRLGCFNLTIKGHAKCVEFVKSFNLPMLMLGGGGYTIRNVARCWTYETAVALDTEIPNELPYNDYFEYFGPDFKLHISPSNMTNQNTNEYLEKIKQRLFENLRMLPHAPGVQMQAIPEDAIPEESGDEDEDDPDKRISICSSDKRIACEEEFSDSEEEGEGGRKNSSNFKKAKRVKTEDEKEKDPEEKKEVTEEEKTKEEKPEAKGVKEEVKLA
Sequence of Protein cereblon/Protein deacetylase HDAC6 (Mus musculus) (Q8C7D2 whole entry, looked up): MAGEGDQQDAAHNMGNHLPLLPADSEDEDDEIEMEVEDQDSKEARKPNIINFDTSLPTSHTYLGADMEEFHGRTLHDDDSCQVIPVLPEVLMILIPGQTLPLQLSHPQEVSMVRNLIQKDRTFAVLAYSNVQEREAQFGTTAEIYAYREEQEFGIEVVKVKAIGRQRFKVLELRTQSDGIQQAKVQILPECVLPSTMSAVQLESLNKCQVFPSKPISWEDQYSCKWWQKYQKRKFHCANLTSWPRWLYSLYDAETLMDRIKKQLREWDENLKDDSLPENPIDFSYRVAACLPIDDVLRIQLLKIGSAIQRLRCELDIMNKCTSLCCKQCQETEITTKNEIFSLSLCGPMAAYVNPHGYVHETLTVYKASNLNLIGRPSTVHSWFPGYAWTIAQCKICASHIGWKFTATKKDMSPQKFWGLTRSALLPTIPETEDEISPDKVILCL
Sequence of Protein cereblon/Protein deacetylase HDAC6 (Mus musculus) (Q9Z2V5 whole entry, looked up): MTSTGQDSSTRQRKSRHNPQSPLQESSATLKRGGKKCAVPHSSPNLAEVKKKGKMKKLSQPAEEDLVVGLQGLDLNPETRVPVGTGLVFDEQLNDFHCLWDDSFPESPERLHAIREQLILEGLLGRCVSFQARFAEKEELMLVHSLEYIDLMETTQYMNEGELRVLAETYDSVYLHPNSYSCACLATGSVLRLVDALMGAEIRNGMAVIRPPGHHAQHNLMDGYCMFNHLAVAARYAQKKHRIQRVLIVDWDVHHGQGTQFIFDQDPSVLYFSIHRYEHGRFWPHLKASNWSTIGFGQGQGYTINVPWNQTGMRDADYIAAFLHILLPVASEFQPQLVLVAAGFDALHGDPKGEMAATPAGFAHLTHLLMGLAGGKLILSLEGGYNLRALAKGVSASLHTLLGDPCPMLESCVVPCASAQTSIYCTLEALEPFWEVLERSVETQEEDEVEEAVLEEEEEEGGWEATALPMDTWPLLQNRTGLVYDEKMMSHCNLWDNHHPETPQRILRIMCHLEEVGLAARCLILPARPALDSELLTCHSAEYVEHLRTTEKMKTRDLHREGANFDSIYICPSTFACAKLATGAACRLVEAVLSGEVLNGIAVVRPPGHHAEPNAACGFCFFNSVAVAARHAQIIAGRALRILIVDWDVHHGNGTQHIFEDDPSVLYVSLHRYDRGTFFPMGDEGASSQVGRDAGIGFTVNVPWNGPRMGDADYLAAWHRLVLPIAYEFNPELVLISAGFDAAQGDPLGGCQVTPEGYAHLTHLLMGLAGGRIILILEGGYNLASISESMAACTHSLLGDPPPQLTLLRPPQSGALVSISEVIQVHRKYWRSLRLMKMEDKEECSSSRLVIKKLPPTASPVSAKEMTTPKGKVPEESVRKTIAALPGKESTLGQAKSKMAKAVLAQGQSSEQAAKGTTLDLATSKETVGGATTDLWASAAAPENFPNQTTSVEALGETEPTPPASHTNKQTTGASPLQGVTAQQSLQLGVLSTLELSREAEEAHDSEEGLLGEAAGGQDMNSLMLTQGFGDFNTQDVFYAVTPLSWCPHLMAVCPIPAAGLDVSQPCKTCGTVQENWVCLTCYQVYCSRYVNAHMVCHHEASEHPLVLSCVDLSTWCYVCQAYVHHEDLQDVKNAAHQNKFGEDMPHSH
Sequence of Protein cereblon/Protein deacetylase HDAC6 (Homo sapiens) (Q96SW2 whole entry, looked up): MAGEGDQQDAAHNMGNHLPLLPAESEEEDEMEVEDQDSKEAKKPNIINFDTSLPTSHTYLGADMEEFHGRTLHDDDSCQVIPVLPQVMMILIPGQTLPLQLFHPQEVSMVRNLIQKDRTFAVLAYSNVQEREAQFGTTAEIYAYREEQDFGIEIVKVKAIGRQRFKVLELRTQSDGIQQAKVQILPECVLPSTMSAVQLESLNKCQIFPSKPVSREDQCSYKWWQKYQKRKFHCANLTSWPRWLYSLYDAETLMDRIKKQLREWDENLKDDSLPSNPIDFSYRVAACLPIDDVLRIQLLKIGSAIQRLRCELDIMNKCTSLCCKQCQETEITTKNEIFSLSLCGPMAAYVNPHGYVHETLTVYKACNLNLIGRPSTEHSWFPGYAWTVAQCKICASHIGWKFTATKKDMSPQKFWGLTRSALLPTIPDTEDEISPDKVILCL
Sequence of Protein cereblon/Protein deacetylase HDAC6 (Homo sapiens) (Q9UBN7 whole entry, looked up): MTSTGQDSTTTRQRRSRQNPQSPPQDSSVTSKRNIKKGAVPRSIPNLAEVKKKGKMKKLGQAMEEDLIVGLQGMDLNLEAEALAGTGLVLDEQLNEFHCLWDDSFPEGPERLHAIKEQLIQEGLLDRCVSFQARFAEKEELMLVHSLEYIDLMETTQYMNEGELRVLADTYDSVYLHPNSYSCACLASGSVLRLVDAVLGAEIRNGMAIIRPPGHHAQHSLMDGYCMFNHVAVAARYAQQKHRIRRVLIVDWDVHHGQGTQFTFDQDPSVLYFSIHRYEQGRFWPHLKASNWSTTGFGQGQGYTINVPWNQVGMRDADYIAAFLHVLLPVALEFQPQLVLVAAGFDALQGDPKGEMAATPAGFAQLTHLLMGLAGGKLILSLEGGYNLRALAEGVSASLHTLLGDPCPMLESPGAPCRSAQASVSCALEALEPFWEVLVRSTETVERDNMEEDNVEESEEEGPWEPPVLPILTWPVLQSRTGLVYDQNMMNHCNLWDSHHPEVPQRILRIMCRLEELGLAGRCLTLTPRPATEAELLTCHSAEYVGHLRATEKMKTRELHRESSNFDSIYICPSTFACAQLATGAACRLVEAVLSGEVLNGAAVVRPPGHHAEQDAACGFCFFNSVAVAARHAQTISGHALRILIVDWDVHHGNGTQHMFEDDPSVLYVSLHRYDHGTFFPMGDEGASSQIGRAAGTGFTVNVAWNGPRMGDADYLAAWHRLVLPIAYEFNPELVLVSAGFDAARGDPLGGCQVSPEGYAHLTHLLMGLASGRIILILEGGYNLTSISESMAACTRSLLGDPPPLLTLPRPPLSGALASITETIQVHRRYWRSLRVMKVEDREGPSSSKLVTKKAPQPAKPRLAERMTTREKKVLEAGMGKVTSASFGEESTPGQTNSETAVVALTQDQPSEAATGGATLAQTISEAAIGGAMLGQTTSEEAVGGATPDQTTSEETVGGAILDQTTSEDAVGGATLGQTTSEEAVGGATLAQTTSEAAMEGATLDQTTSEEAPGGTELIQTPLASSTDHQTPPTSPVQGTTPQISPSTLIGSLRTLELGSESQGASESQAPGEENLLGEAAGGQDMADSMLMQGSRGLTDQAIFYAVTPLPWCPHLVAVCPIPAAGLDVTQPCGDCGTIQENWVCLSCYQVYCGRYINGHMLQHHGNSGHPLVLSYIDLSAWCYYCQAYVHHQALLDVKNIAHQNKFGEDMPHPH

SMILES | inhibition [1] | inhibition [2] | half-life at 1 µM [3] [h] | further results
O=C1CCC(N2C(=O)c3cccc(NCCOCCOCCn4cc(CCCCN(Cc5ccc(C(=O)NO)cc5)Cc5cccnc5)nn4)c3C2=O)C(=O)N1 (stereo unspecified) | inactive | inactive | 0.864 | 
O=C1CCC(N2C(=O)c3cccc(NCCOCCN(Cc4ccc(C(=O)NO)cc4)Cc4cccnc4)c3C2=O)C(=O)N1 (stereo unspecified) | inactive | inactive | 1.36 | 
O=C1CCC(N2C(=O)c3cccc(NCCOCCn4cc(CCCCN(Cc5ccc(C(=O)NO)cc5)Cc5cccnc5)nn4)c3C2=O)C(=O)N1 (stereo unspecified) | inactive | inactive | 1.01 | 
O=C1CCC(N2C(=O)c3cccc(NCCCCCCn4cc(CN(Cc5ccc(C(=O)NO)cc5)Cc5cccnc5)nn4)c3C2=O)C(=O)N1 (stereo unspecified) | inactive | inactive | 0.704 | 
O=C1CCC(N2C(=O)c3cccc(NCCCn4cc(CN(Cc5ccc(C(=O)NO)cc5)Cc5cccnc5)nn4)c3C2=O)C(=O)N1 (stereo unspecified) | inactive | inactive | 0.738 | 
O=C1CCC(N2C(=O)c3cccc(NCCCCCCn4cc(CCCCN(Cc5ccc(C(=O)NO)cc5)Cc5cccnc5)nn4)c3C2=O)C(=O)N1 (stereo unspecified) | inactive | inactive | 0.762 | 
CN1C(=O)CCC(N2C(=O)c3cccc(NCCOCCOCCn4cc(CN(Cc5ccc(C(=O)NO)cc5)Cc5cccnc5)nn4)c3C2=O)C1=O (stereo unspecified) |  |  |  | Activity [4]: inactive
O=C1CCC(N2C(=O)c3cccc(NCCOCCOCCn4cc(CN(Cc5ccc(C(=O)NO)cc5)Cc5cccnc5)nn4)c3C2=O)C(=O)N1 (stereo unspecified) | inactive | inactive | 0.62 | IC50 [5]: > 10000 nM
O=C1CCC(N2C(=O)c3cccc(NCCN(Cc4ccc(C(=O)NO)cc4)Cc4cccnc4)c3C2=O)C(=O)N1 (stereo unspecified) | inactive | inactive | 1.29 | 
O=C(NO)c1ccc(CN(Cc2cccnc2)S(=O)(=O)c2cc(F)c(F)c(F)c2F)cc1 |  |  |  | IC50 [6]: 31.6 nM; IC50 [5]: > 1000 nM; Ratio IC50 [7]: 158
O=C1CCC(N2C(=O)c3cccc(NCCOCCn4cc(CN(Cc5ccc(C(=O)NO)cc5)Cc5cccnc5)nn4)c3C2=O)C(=O)N1 (stereo unspecified) | inactive | inactive | 1.33 | Activity [8]: 60%; Activity [9]: inactive; Activity [10]: Active; Minimal Effect Observed Compared To To-317,Ricolinostat An D Citarinostat
O=C1CCC(N2C(=O)c3cccc(NCCCn4cc(CCCCN(Cc5ccc(C(=O)NO)cc5)Cc5cccnc5)nn4)c3C2=O)C(=O)N1 (stereo unspecified) | inactive | inactive | 1.05 | Activity [9]: inactive; Activity [10]: inactive
O=C1CCC(N2C(=O)c3cccc(NCCCCN(Cc4ccc(C(=O)NO)cc4)Cc4cccnc4)c3C2=O)C(=O)N1 (stereo unspecified) | inactive | inactive | 1.45 | 
O=C1CCC(N2C(=O)c3cccc(NCCOCCOCCN(Cc4ccc(C(=O)NO)cc4)Cc4cccnc4)c3C2=O)C(=O)N1 (stereo unspecified) | inactive | inactive | 1.06 | 
